Molecules are shown by their SMILES.

This series in a line: gradient 5% acetonitrile 3 min, to 50% in 2 min, to 85% in 15 min, held 3 min, 100 µL/min. The settings on record: column: Zorbax Extend-C18 2.1 x 50 mm; eluents: water / acetonitrile, 0.1% formic acid. Summed up:
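Retention time was recorded from adduct peaks, which were picked computationally and each inspected manually. Pure standards ran in mixtures of ~100 molecules on HPLC coupled to a quadrupole time-of-flight mass spectrometer, in positive and negative ionization mode, through a Zorbax Extend-C18 column (2.1 × 50 mm, 1.8 μm) at 100 μL/min. Eluents were water and acetonitrile, each with 0.1% formic acid.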
Turning to `Cc1nc2c(sc3nc(-c4ccccc4)ccc32)c(=O)n1CC(=O)Nc1cccc(Cl)c1`, the RP-LC retention time was determined as 1120 s.

The molecule `Cc1ccc(NC(=O)N2CCc3nc[nH]c3C2)cc1F` gave an RP-LC retention time of 606 s. For `COc1ccc(-c2cc(N3CCC(NC(=O)C4(c5ccccc5)CC4)CC3)n[nH]2)cc1`, the RP-LC retention time amounted to 817 s.

In turn, `COc1ccccc1Cc1noc(C2CN(S(=O)(=O)c3c(C)noc3C)C2)n1` displayed an RP-LC retention time of 897 s. For the molecule `Cc1oc2cc3oc(=O)c(CC(=O)N[C@@H](Cc4c[nH]c5ccccc45)C(=O)O)c(C)c3cc2c1C`, the RP-LC retention time stood at 863 s. The molecule `CN1CCC(N2CCN(S(=O)(=O)c3ccccc3C(F)(F)F)CC2)C1=O` (centres undefined) displayed an RP-LC retention time of 594 s. Molecule `Cc1cc(N2CCOCC2)nc(Nc2ccc(NC(=O)C(C)Oc3ccccc3)cc2)n1` (centres undefined) gave an RP-LC retention time of 580 s. Consider `Cc1cc(C)cc(-n2ccn(Cc3nc(-c4ccc(Cl)c(F)c4)no3)c(=O)c2=O)c1`, for which the RP-LC retention time was determined as 976 s. Turning to `COc1cc(NC(=O)CSc2nc3nc(C)cc(C)n3n2)cc(OC)c1`, the RP-LC retention time was determined as 726 s. `O=C1CCc2cc(NS(=O)(=O)Cc3cccc(Cl)c3)ccc2N1` yielded an RP-LC retention time of 938 s. On to `O=C(NC1CCN(c2cc(-c3cccs3)[nH]n2)C1)c1ccc(Cl)cc1` (centres undefined), for which the RP-LC retention time was determined as 776 s. `CCc1nc(-c2csc(S(=O)(=O)N3CCC(C(=O)Nc4cccc(F)c4)CC3)c2)no1` gave an RP-LC retention time of 1010 s. Consider `CC(C)n1cc(CN2CCCCCNC(=O)[C@@H]3CCC[C@@H]32)c2ccccc21`, for which the RP-LC retention time is 701 s. `O=C(Nc1ccc2c(c1)OCCO2)c1cn(-c2cc(N3CCSCC3)ncn2)cn1` had an RP-LC retention time of 832 s. Molecule `CCCN1CCN(c2cc(C(=O)O)c3cc(NC(=O)c4ccc(Br)cc4)ccc3n2)CC1` showed an RP-LC retention time of 628 s. For the molecule `Cc1cccc(NC(=O)CSc2nccc(N3CCN(c4cc(C)ccc4C)CC3)n2)c1`, the RP-LC retention time came to 917 s. The molecule `CCNC(=O)Cc1nnc(-c2ccc(C)cc2)o1` showed an RP-LC retention time of 664 s. As for `Cc1nn(-c2nc(-c3ccc(Cl)cc3)cs2)c(C)c1CC(=O)N1CCCCCC1`, the RP-LC retention time came to 793 s. `COc1ccc(N2C(=O)c3cc(C)nn3CC2(C)C(=O)NCc2ccc(F)cc2)cc1` (centres undefined): the RP-LC retention time came out at 770 s. Next, `COc1ccc(OCC(=O)N2CCN(c3cc(C)n4c(C)nnc4n3)CC2)cc1`: 599 s; `CCOc1ccc(NC(=O)Cn2nc3n(c2=O)CCCC3)cc1`: 655 s. Next, `O=S(=O)(c1cc(-c2nnc(C3CC3)o2)co1)N1CCN(c2ccccc2)CC1`: 960 s. Take `CCCCC(=O)N1CCN(c2nc(C)cc(NCC)n2)CC1`: the RP-LC retention time amounted to 618 s. On to `Cc1cc(C)n(-c2ccnc(N3CCC(C(=O)NCCc4cccs4)CC3)n2)n1`, for which the RP-LC retention time amounted to 843 s. `CCN1CCN(CCCNC(=O)Cn2cnc3nc4c(cc3c2=O)CCCC4)CC1` returned an RP-LC retention time of 554 s. `CCCNC(=O)C1CCN(S(=O)(=O)c2ccc3c(c2)sc(=O)n3CCC)CC1` returned an RP-LC retention time of 824 s. Take `COC(=O)CSc1nnc2c(S(=O)(=O)N3CCN(c4ccc(F)cc4)CC3)cccn12`: the RP-LC retention time amounted to 825 s. The molecule `CCc1nnc(NC(=O)C2CC(=O)N(CCc3c[nH]c4ccc(Cl)cc34)C2)s1` (centres undefined) displayed an RP-LC retention time of 715 s. Regarding `CCC(Oc1ccc(=O)n(-c2ccc(F)cc2)n1)C(=O)NCCN1CCN(C)CC1` (centres undefined), the RP-LC retention time is 585 s. `O=C(Nc1ccc(Cl)c(Cl)c1)N1CCN(c2ncc(C(F)(F)F)cc2Cl)CC1`: the RP-LC retention time turned out to be 940 s.

For `O=C(CSc1nc(N2CCc3ccccc3C2)nc2ccccc12)NC1CCCCC1`, the RP-LC retention time came out at 728 s. Turning to `Cc1ccc2c(c1)N(S(C)(=O)=O)CCC(C(=O)Nc1ccc(F)cc1F)O2` (centres undefined), the RP-LC retention time was 958 s. `CCc1nnc(-c2ccc3ccn(CC(=O)NCc4ccc(OC)c(OC)c4)c3c2)o1` gave an RP-LC retention time of 745 s. `COc1cc(NC(=O)N2CCCC(CN3CCc4ccccc4C3)C2)cc(OC)c1OC` (centres undefined) had an RP-LC retention time of 642 s. Regarding `CC(C)n1c(N2CCN(C(=O)c3ccccn3)CC2)cc(=O)n(C(C)C)c1=O`, the RP-LC retention time is 709 s. Next, `O=C(Nc1cnc(N2CCCC2)nc1)c1ccc(F)c(Cl)c1`: 804 s. As to `Cc1ccc(S(=O)(=O)N2CCC3(CC2)NCCN=C3NCc2cc(F)cc(F)c2)cc1C`, the RP-LC retention time came to 798 s. `OC[C@@H]1CNC[C@H]1C1CCN(Cc2ccc(OC(F)(F)F)cc2)CC1` returned an RP-LC retention time of 591 s.

For `O=C(NC1CCCC1)c1cccc2c1CCN2C(=O)c1ccc(F)cc1`, the RP-LC retention time was 862 s.

With `CCCn1c(CCNC(=O)c2ccc(OC)cc2)nc2cccnc21`, the RP-LC retention time came out at 662 s. The molecule `CCN1c2ccc(F)cc2C(=O)NC12CCN(C(=O)c1ccc(F)cc1)CC2` registered an RP-LC retention time of 714 s. `CCC(C)n1c(=O)c2ccccc2n(Cc2nc(-c3ccc(SC)cc3)no2)c1=O` (centres undefined) showed an RP-LC retention time of 1260 s. Next, `COc1ccc(C2Cn3nnc(-c4nc(-c5ccccc5)no4)c3CO2)cc1` (centres undefined): 1100 s. `Cc1cc2c(c(=O)n(-c3ccc(F)cc3)c(=O)n2CC(=O)Nc2ccc(Cl)cc2F)n1C` displayed an RP-LC retention time of 894 s. Regarding `O=C(Cn1c(=O)oc2ccc(C(=O)N3CCCC3)cc21)N1CCN(c2cccc(Cl)c2)CC1`, the RP-LC retention time came to 842 s.

Molecule `O=c1n(Cc2cccc(Cl)c2)nc2ccc(S(=O)(=O)N3CCCC3)cn12` had an RP-LC retention time of 919 s. `CCOC(=O)CNC(=O)N1CCCN(c2nc3cc(Br)ccc3n3cccc23)CC1` returned an RP-LC retention time of 671 s. Consider `COc1ccccc1N1CCN(c2cc(SCC(=O)Nc3ccc(F)cc3)ncn2)CC1`, for which the RP-LC retention time was 941 s. For the molecule `COc1ccc(OCc2noc(CNC(=O)Cc3c[nH]c4ccccc34)n2)cc1`, the RP-LC retention time came out at 681 s. Molecule `CCCN1C(=O)COc2cc(-c3noc(C(=O)NC(C)CC)n3)ccc21` (centres undefined) had an RP-LC retention time of 950 s. Molecule `COc1ccc(Br)c(C(=O)Nc2ccc3c(c2)C(=O)NCC3)c1` showed an RP-LC retention time of 672 s. Take `O=C(CN1C(=O)NC2(CCCCC2)C1=O)Nc1cc(F)cc(F)c1`: the RP-LC retention time was determined as 827 s. Next, `CCOC(=O)c1c(C)c(CCC(=O)NCCN2CCOCC2)c(C)n1C`: 622 s; `O=C(NCCN1CCCCC1)c1ccc(I)cc1`: 678 s; `Cn1c(=O)n(CC(=O)N2CCCCCC2)c(=O)c2cnc(-c3ccc(Cl)cc3)nc21`: 1120 s.

Molecule `Cc1cn(C2CC(O)C(CO)O2)c(=O)n(Cc2ccccc2)c1=O` (centres undefined) showed an RP-LC retention time of 697 s. On to `Cc1cc(C)n(-c2ccnc(N3CCC(C(=O)N4CCN(c5ccccn5)CC4)CC3)n2)n1`, for which the RP-LC retention time worked out at 629 s. `Cn1c(N2CCCC(C(=O)NCCC3=CCCCC3)C2)cc(=O)n(C)c1=O` (centres undefined) showed an RP-LC retention time of 754 s. Molecule `O=C(NCc1ccccn1)c1ccc2c(c1)N(C(=O)c1ccc(F)cc1)CC2` came in with an RP-LC retention time of 653 s.

Molecule `CCc1ccc(S(=O)(=O)N2CCC(n3c(-c4ccco4)nc4cccnc43)C2)cc1` (centres undefined) came in with an RP-LC retention time of 972 s. The molecule `CCn1ccc2sc(C)c(C(=O)NCc3ccccc3Br)c2c1=O` showed an RP-LC retention time of 926 s. As to `CCOC(=O)c1c(NCCC(C)C)c2ccc(Cl)cc2[nH]c1=O`, the RP-LC retention time is 900 s. Regarding `O=C(c1cn(-c2ccc(S(=O)(=O)N3CCCCC3)cc2)cn1)N1CCN(c2ccccn2)CC1`, the RP-LC retention time was determined as 633 s. As to `COC(=O)c1c(C)[nH]c(C(=O)N2CCCC(C(=O)N3CCN(c4cc(C)ccc4C)CC3)C2)c1C` (centres undefined), the RP-LC retention time stood at 961 s. Next, `CCCNC(=O)c1sc(Nc2cccc(C)n2)nc1C`: 697 s; `CC(C)CCN1CCC(N2CCN(C(=O)C3CCCC3)CC2)C1=O` (centres undefined): 585 s; `Cc1[nH]c(C(=O)N2CCC(CC(=O)NCCCOC(C)C)CC2)c(C)c1C`: 715 s. Next, `COc1ccc(S(=O)(=O)NC2CCN(C(=O)C3CCN(C(C)=O)CC3)CC2)cc1`: 634 s. Next, `O=C(c1cnc2n(c1=O)CCS2)N1CCN(c2ccc([N+](=O)[O-])cc2)CC1`: 635 s. The molecule `COc1ccc(NC(=O)NC2CCN(c3ccc(F)c(C)c3)C2=O)cc1` (centres undefined) yielded an RP-LC retention time of 798 s.

Regarding `CCn1ncc(NC(=O)c2cccc(OC)c2)c(N2CCOCC2)c1=O`, the RP-LC retention time came to 788 s. The molecule `CCn1c(=O)n(CC)c2cc(S(=O)(=O)c3ccc(C)cc3)c(N)cc21` displayed an RP-LC retention time of 760 s. `O=C(Nc1ccc(C(F)(F)F)cc1)C1CCCN(S(=O)(=O)c2c[nH]c(C(=O)N3CCCC3)c2)C1` (centres undefined) yielded an RP-LC retention time of 908 s.

`O=C(CC1CCCC1)N1CCN(c2ncccc2-c2nnc(C3CC3)o2)CC1` came in with an RP-LC retention time of 828 s. Next, `Cc1ccc(NC(=O)C2CC(=O)N(c3n[nH]c4cc(Br)ccc34)C2)cc1` (centres undefined): 839 s. `COCCn1c(CCCC(=O)N2CCN(c3ncccn3)CC2)nc2cccnc21` registered an RP-LC retention time of 596 s.

For the molecule `Cc1ccc(NC(=O)N2CCC(c3cc(N)on3)CC2)cc1`, the RP-LC retention time was determined as 686 s.

As to `O=C(NCc1nc(-c2cccs2)no1)c1ccc(Br)cc1`, the RP-LC retention time worked out at 892 s. Molecule `CCc1onc(C)c1C1CCCN1C(=O)Cc1ccccc1F` (centres undefined) showed an RP-LC retention time of 823 s.

For the origin of these results see the METLIN SMRT retention time set (Domingo-Almenara et al. 2019).
